This is an account of results in US20210308093A1, “ACTIVATOR FOR SIMULTANEOUSLY ACTIVATING OXIDATIVE PHOSPHORYLATION AND INHIBITING GLYCOLYSIS AND USE THEREOF” (LANZHOU UNIVERSITY, priority 2019, published 2021).

Data set [1] concerns oxidative phosphorylation in HuH7 cells. In words: Measurement of oxidative phosphorylation and glycolysis in HuH7 cells (Seahorse XF). It is filed as cell-based. The method, then:
Based on the above results, effect of baicalein on oxidative phosphorylation needs to be clarified initially. Therefore, effects of different concentrations of baicalein on oxidative phosphorylation are tested at a cellular level. […] Further analysis finds that, baicalein (100 μM) can improve basal respiration value, maximum respiration value and ATP production in oxidative phosphorylation. […] In order to further confirm effect of baicalein on the oxidative phosphorylation, the present disclosure further extracts mitochondria, a main site where the oxidative phosphorylation locates, and tests effect of baicalein concentration gradient and incubation time gradient on oxidative phosphorylation in the mitochondria. […] At this point, the present disclosure discovers a natural activator of the oxidative phosphorylation, the baicalein. […] 1,000 cells or 4 μg mitochondria were added to the well plate provided by the Seahorse detection kit (Agilent, 103275-100). Related measurements were carried out following instructions.

In data set [2] the test system is HuH7 cells. In words: MTT assay, proliferation inhibition of hepatocellular-carcinoma cell line HuH7. It counts as cell-based. The method, then: (§1) The present disclosure carries out experiments to test proliferation inhibition effects of baicalein on hepatocellular-carcinoma cell lines HuH7 and HepG2 respectively, with IC50 values calculated. […] Moreover, the present disclosure establishes a diethylnitrosamine-induced mouse liver cancer model which is then intervened with baicalein.
(§2) Hela, HepG2, and HuH7 cells (from China Center for Type Culture Collection (Wuhan, China)) were cultured at 37° C. with 5% CO2 in Dulbecco's modified Eagle medium (DMEM, Thermo Fisher Scientific) supplemented with 10% fetal bovine serum (Thermo Fisher Scientific) and 1% penicillin-streptomycin (Thermo Fisher Scientific).
(§3) 10^4 cells were added to a 96-well plate. 100 μL of pre-warmed medium was added to each well. After attachment, the cells were starved in a serum-free medium for 24 h, and then transferred to a normal medium containing 100 μM baicalein and cultured for another 24 h. After treatment, the cells were incubated with 100 μL of conventional medium containing 50 μg MTT (Sigma-Aldrich) for 4 h. Finally, purple precipitates were dissolved in 200 μL of DMSO (Sigma-Aldrich), and absorbance at 490 nm was measured by a microplate reader (Bio-Rad).

For data set [3] the following is noted: mouse, in vivo. The protocol:
as §1
(§4) All animal operations were carried out based on a protocol approved by the Animal Research Committee of Peking University, China, in accordance with the “Guidelines for Care and Use of Laboratory Animals” (NIH Publication No. 86-23, revised in 1985). All mice (C57BL/6j, Charles River, Beijing, China) were kept in a temperature-controlled barrier facility at Laboratory Animal Center in Peking University (laboratory animal facility approved by AAALAC) with a 12 h light/dark cycle, and had free access to food and water. Only male animals were used Animals were randomly grouped based on weight level. Five mice were selected for each group to meet requirements for statistical significance. A randomised, comparative, and single-blinded test was used. For wild littermates, modeling with diethylnitrosamine was started at 6 weeks of age and maintained for 24 weeks. After 12 weeks of modeling, 400 mg/kg baicalein (40 mg/mL saline) was administered by gavage daily for another 12 weeks, and then liver disease-related symptoms of these mice were analyzed.
(§5) A liver sample cut from a same leaf of each animal was fixed in 4% paraformaldehyde overnight at room temperature, dehydrated with an ethanol gradient, infiltrated with xylene and embedded in paraffin. A paraffin embedded tissue was used to prepare serial sections 5 μm thick for hematoxylin and eosin (H&E) staining.

The subject of data set [4] is diethylnitrosamine-induced hepatocellular carcinoma. The note with it: 400 mg/kg by gavage daily for 12 weeks. The method, then:
as §1, §4, §5

Data set [5] concerns oxidative phosphorylation in mitochondria. In words: Measurement of oxidative phosphorylation (ATP production) in mitochondria extracted from HuH7 cells. It counts as biochemical. The note with it: concentration gradient and incubation time gradient. The protocol:
Based on the above results, effect of baicalein on oxidative phosphorylation needs to be clarified initially. Therefore, effects of different concentrations of baicalein on oxidative phosphorylation are tested at a cellular level. […] Further analysis finds that, baicalein (100 μM) can improve basal respiration value, maximum respiration value and ATP production in oxidative phosphorylation. […] In order to further confirm effect of baicalein on the oxidative phosphorylation, the present disclosure further extracts mitochondria, a main site where the oxidative phosphorylation locates, and tests effect of baicalein concentration gradient and incubation time gradient on oxidative phosphorylation in the mitochondria. […] At this point, the present disclosure discovers a natural activator of the oxidative phosphorylation, the baicalein. […] Measurement of oxidative phosphorylation with Seahorse XF (Agilent): HuH7 cells, HepG2 cells and mitochondria were prepared. 1,000 cells or 4 μg mitochondria were added to the well plate provided by the Seahorse detection kit (Agilent, 103275-100). Related measurements were carried out following instructions. Measurement of oxidative phosphorylation (ATP production) with QQQ-MS (AB Sciex): mitochondria were extracted from HuH7 cells. A reaction system was prepared according to Table 1 below. 4 μg of mitochondria was added to a 100 μL reaction system. […]

Data set [6] deals with oxidative phosphorylation in HepG2 cells. In words: Measurement of oxidative phosphorylation and glycolysis in HepG2 cells (Seahorse XF). It counts as cell-based. An excerpt:
With quantitative proteomics analysis, the present disclosure finds that the natural product baicalein can activate the oxidative phosphorylation. Then, it is necessary to clarify relationship between activation of the oxidative phosphorylation by baicalein and anti-cancer activity thereof. Cancer cells have the “Warburg effect”, that is, cancer cells tend to use glycolysis in replace of the oxidative phosphorylation which normal cells tend to use, so that cancer cells grow at a much faster rate than normal cells. […] The present disclosure verifies this phenomenon in HepG2 and HuH7 cells. […] 1,000 cells or 4 μg mitochondria were added to the well plate provided by the Seahorse detection kit (Agilent, 103275-100). Related measurements were carried out following instructions.

In data set [7] the test system is HepG2 cells. In words: MTT assay, proliferation inhibition of hepatocellular-carcinoma cell line HepG2. It is filed as cell-based. The protocol:
as §1, §2, §3
A general note: Formazan colour is commonly taken as a measure of viable cells.

Data set [8] relates to HuH7 cells. In words: siRNA knockdown of key enzyme of oxidative phosphorylation, effect on anti-cancer activity (MTT, HuH7). It counts as cell-based.
Excerpt: With quantitative proteomics analysis, the present disclosure finds that the natural product baicalein can activate the oxidative phosphorylation. Then, it is necessary to clarify relationship between activation of the oxidative phosphorylation by baicalein and anti-cancer activity thereof. Cancer cells have the “Warburg effect”, that is, cancer cells tend to use glycolysis in replace of the oxidative phosphorylation which normal cells tend to use, so that cancer cells grow at a much faster rate than normal cells. […] The present disclosure verifies this phenomenon in HepG2 and HuH7 cells. […] (See FIG. 4)
The siRNA constructs listed below were designed and synthesized by GenePharma (Shanghai, China). At a modeling stage before baicalein treatment, interference was performed based on the RNAiMAX (Thermo Fisher Scientific) protocol.
as §3

“Also recorded” adds a separate entry of the source.

Take `O=c1cc(-c2ccccc2)oc2cc(O)c(O)c(O)c12` [baicalein]: in data set [1], the glycolysis result was “inhibits the glycolysis”. Also, in data set [1] (baicalein 100 μM), the “ATP production in oxidative phosphorylation” value is recorded as “can improve”, the basal respiration value result was “can improve” and the maximum respiration value entry is “can improve”. Also, in data set [1] (different concentrations of baicalein), the “level of oxidative phosphorylation” value is given as “activates the oxidative phosphorylation in a concentration dependent manner; also recorded: increasing level of the oxidative phosphorylation”. In data set [2], the proliferation inhibition effect entry was “significantly inhibits”. In data set [3], the liver toxicity entry is “no liver toxicity” and the “weight loss of mice” value is “no weight loss”. In data set [4], the “therapeutic effect on mice with hepatocellular carcinoma” value is recorded as “significant therapeutic effect”. Further, the “oxidative phosphorylation in the mitochondria” value in data set [5] was “activation of the oxidative phosphorylation in a concentration dependent and time dependent manner”. In data set [6], the glycolysis result is listed as “inhibits the glycolysis” and the “level of oxidative phosphorylation” value is recorded as “increasing level of the oxidative phosphorylation”. Further, the proliferation inhibition effect entry in data set [7] is given as “significantly inhibits”. Moreover, the “anti-cancer activity after knockdown of a key enzyme of oxidative phosphorylation” value in data set [8] is reported as “greatly weakened”.
